Measured values: patent US20040253206A1 (priority 1999, published 2004)
Where two headings read alike, the source gives them in different places.

Legend:
[1] = Chemical hydrolysis in wet acetonitrile; format: physicochemical; details: ca. 1 mg/mL in wet acetonitrile, 26 days at room temperature
Procedure: A sample of solid acetate (Compound 4) was dissolved (ca. 1 mg/mL) in wet acetonitrile (nonanhydrous due to exposure to humid air).

[2] = system: A121 ovarian carcinoma cell line; assay: Tumor cell growth inhibition (SRB), A121; format: cell-based, human; details: 72-96 h, read-out: IC50 (±S.E.) A121
Text: (§1) HT-1080 and HT-1080/DR4 (MRP/LRP positive) fibrosarcoma cell lines (1,2) were obtained from Dr. Y. Rustum, Roswell Park Cancer Institute, Buffalo, N.Y. The A121 ovarian cell line (3) was provided by Dr. Kent Crickard, Buffalo General Hospital, Buffalo, N.Y. The MDA435/LCC6-WT and MDR^1 transfected cell lines (4) were provided by Dr. R. Clarke, Lombardi Cancer Center, Georgetown University School of Medicine. Cell lines were propagated as monolayers in RPMI-1640 containing 5% FCS, 5% NuSerum IV, 20 mM HEPES, 2 mM L-glutamine at 37° C. in a 5% CO2 humidified atmosphere.
(§2) Paclitaxel, which was used for comparison purposes and is not a compound of the present invention, was provided by Dr. I. Ojima, SUNY at Stonybrook. […] Paclitaxel was solubilized in 100% DMSO. […] For the second experiment (Experiment 2), less concentrated stock solutions (0.4 mM) of each compound were prepared in sterile H2O acidified with 10% 1 N HCl. […] All compounds were further diluted in RPMI-1640 containing 10 mM HEPES.
(§3) Assessment of cell growth inhibition was determined in 96 well microtiter plates according to the method of Skehan et al., “New Colorimetric Cytotoxicity Assay for Anticancer-Drug Screening, Articles 82(13):1107-1112 (1990). Briefly, cells were plated with 400-1800 cells/well in 96 well plates and incubated at 37° C. 15-18 hr prior to drug addition to allow for cell attachment. Each cell line was exposed to 12 concentrations of compound (a 6 log range), 5 replicate data points per compound concentration. […] Assays were terminated with 100 μl of ice-cold 50% TCA. After 1 hr at 4° C., plates were washed 5 times with tap water to remove TCA, low-molecular-weight metabolites and serum proteins. 50 μl of 0.4% sulforhodamine B (SRB) was added to each well. Following a five minute incubation at room temperature, plates were rinsed 5 times with 0.1% acetic acid and air dried. Bound dye was solubilized with 10 mM Tris Base (pH 10.5) for 5 min on a gyratory shaker. Optical density was measured at 570 nm.
(§4) Data were fit with the Sigmoid-Emax concentration-effect model (N. H. G. Holford and L. B. Scheiner, “Understanding the dose-effect relationship: Clinical applications of pharmacokinetic-pharmacodynamic models,” Clin. Pharmacokin. 6:429-453 (1981)) with nonlinear regression, weighted by the reciprocal of the square of the predicted response. The fitting software was developed at RPCI with Microsoft FORTRAN, and uses Marquardt algorithm (D. W. Marquardt, “An algorithm for least squares estimation of nonlinear parameters,” J. Soc. Ind. Appl. Math. 11:431-441) as adapted by Nash (J. C. Nash, Compact Numerical Method for Computers: Linear Algebra and Function Minimization, New York: John Wiley & Sons, 1979) for the nonlinear regression.

[3] = system: LCC6-WT breast carcinoma cell line; assay: Tumor cell growth inhibition (SRB), LCC6-WT; format: cell-based, human; details: read-out: IC50 (±S.E.) LCC6-WT
Text: as §1, §2, §3, §4

[4] = system: HT-1080 fibrosarcoma cell line; assay: Tumor cell growth inhibition (SRB), HT-1080; format: cell-based, human; details: 72-96 h, read-out: IC50 (±S.E.) HT-1080
Text: as §1, §2, §3, §4

[5] = system: HT-1080-DR4 doxorubicin selected MDR (MRP/LRP phenotype) fibrosarcoma cell line; assay: Tumor cell growth inhibition (SRB), HT-1080-DR4; format: cell-based, human; details: for IC50: 72-96 h, read-out: IC50 (±S.E.) HT-1080-DR4; for Resistance ratio (IC50 resistant cell line/IC50 parental line) HT1080/DR4: HT1080/DR4 versus HT-1080, range over experiments
Text: as §1, §2, §3, §4

[6] = Hande 1998; cited from earlier work
[7] = system: LCC6-MDR1 PgP transfected breast carcinoma cell line; assay: cells; details: for Resistance ratio (IC50 resistant cell line/IC50 parental line) LCC6-MDR1: LCC6-MDR1 versus LCC6-WT, range over experiments
Text: as §1, §2, §3, §4

[8] = Storage stability of trifluoroacetate product fraction solutions (analytical HPLC); format: physicochemical
[9] = Experiment 1, TX-001/TX-002 from 4.0 mM stocks
[10] = Experiment 2, TX-001/TX-002 from 0.4 mM stocks
[11] = 4.0 mM stock solutions that had been stored at 4° C. for 7 days
[12] = Experiment 1, TX-001/TX-002 from 4.0 mM stocks, 72-96 h
[13] = Experiment 2, TX-001/TX-002 from 0.4 mM stocks, 72-96 h

Compound	IC50 [2, 9] [nM]	IC50 [2, 10] [nM]	IC50 [3, 11] [nM]	IC50 [3, 12] [nM]	IC50 [3, 13] [nM]	IC50 [4, 9] [nM]	IC50 [4, 10] [nM]	IC50 [5, 9] [nM]	IC50 [5, 10] [nM]	Resistance ratio (IC50 resistant cell line/IC50 parental line) LCC6-MDR1 [7]	Resistance ratio (IC50 resistant cell line/IC50 parental line) HT1080/DR4 [5]	other results
CC(=O)O.CC(=O)OC1C(=O)C2(C)C(O)CC3OCC3(OC(C)=O)C2C(OC(=O)c2ccccc2)C2(O)CC(OC(=O)C(OC(=O)CCC(=O)NCCOCCOCCN)C(NC(=O)c3ccccc3)c3ccccc3)C(C)=C1C2(C)C (stereo not drawn) [TX-001, 2′-Succinamidyl-PEG2-amine-paclitaxel Acetate]	13 ± 0.5	37 ± 1.2	2.7	4.9 ± 0.5	13 ± 0.5	4.5 ± 0.4	19 ± 0.7	8.9 ± 0.4	36 ± 1.5			chemical hydrolysis behavior [1]: converted quantitatively into paclitaxel
COc1cc([C@@H]2c3cc4c(cc3[C@@H](O[C@@H]3O[C@@H]5CO[C@@H](C)O[C@H]5[C@H](O)[C@H]3O)[C@H]3COC(=O)[C@H]23)OCO4)cc(OC)c1O [Etoposide]												solubility in water [6]: nearly insoluble in water
CC(=O)O[C@H]1C(=O)[C@@]2(C)[C@H]([C@H](OC(=O)c3ccccc3)[C@]3(O)C[C@H](OC(=O)[C@H](O)[C@@H](NC(=O)c4ccccc4)c4ccccc4)C(C)=C1C3(C)C)[C@]1(OC(C)=O)CO[C@@H]1C[C@@H]2O [Paclitaxel, reference compound]										65-92 fold	1.1-1.4 fold	IC50 ([2]; Homo sapiens, A121, Experiment 1, TX-001/TX-002 from 4.0 mM stocks): 11 ± 0.5 nM; IC50 ([2]; Homo sapiens, A121, Experiment 2, TX-001/TX-002 from 0.4 mM stocks): 14 ± 1.3 nM; IC50 ([3]; Homo sapiens, Breast carcinoma cell, Experiment 1, TX-001/TX-002 from 4.0 mM stocks, 72-96 h): 4.7 ± 0.5 nM; IC50 ([3]; Homo sapiens, Breast carcinoma cell, Experiment 2, TX-001/TX-002 from 0.4 mM stocks, 72-96 h): 6 ± 2 nM; IC50 ([7]; Homo sapiens, LCC6MDR, read-out: IC50 (±S.E.) LCC6-MDR, Experiment 1, TX-001/TX-002 from 4.0 mM stocks, 72-96 h): 434 ± 28 nM; IC50 ([7]; Homo sapiens, LCC6MDR, read-out: IC50 (±S.E.) LCC6-MDR, Experiment 2, TX-001/TX-002 from 0.4 mM stocks, 72-96 h): 391 ± 52 nM; IC50 ([4]; Homo sapiens, HT-1080, Experiment 1, TX-001/TX-002 from 4.0 mM stocks): 4.5 ± 0.2 nM; IC50 ([4]; Homo sapiens, HT-1080, Experiment 2, TX-001/TX-002 from 0.4 mM stocks): 5.7 ± 0.3 nM; IC50 ([5]; Homo sapiens, Experiment 1, TX-001/TX-002 from 4.0 mM stocks): 4.9 ± 0.4 nM; IC50 ([5]; Homo sapiens, Experiment 2, TX-001/TX-002 from 0.4 mM stocks): 7.7 ± 0.1 nM
CC(=O)O.CC(=O)OC1C(=O)C2(C)C(O)CC3OCC3(OC(C)=O)C2C(OC(=O)c2ccccc2)C2(O)CC(OC(=O)C(OC(=O)CCCC(=O)NCCOCCOCCN)C(NC(=O)c3ccccc3)c3ccccc3)C(C)=C1C2(C)C (stereo not drawn) [TX-002, 2′-Glutaramidyl-PEG2-amine-paclitaxel acetate]	48 ± 3	171 ± 8.8	16	18 ± 1.1	38 ± 4.6	22 ± 0.9	49 ± 6.5	32 ± 1.5	54 ± 5.3	47-60 fold	1.1-1.5 fold	IC50 ([7]; read-out: IC50 (±S.E.) LCC6-MDR, 4.0 mM stock solutions that had been stored at 4° C. for 7 days): 879 nM; IC50 ([7]; read-out: IC50 (±S.E.) LCC6-MDR, Experiment 1, TX-001/TX-002 from 4.0 mM stocks, 72-96 h): 1070 ± 45 nM; IC50 ([7]; read-out: IC50 (±S.E.) LCC6-MDR, Experiment 2, TX-001/TX-002 from 0.4 mM stocks, 72-96 h): 1800 ± 168 nM
2′-Succinamidyl-PEG2-amine-paclitaxel trifluoroacetate [Compound 3]												average purity of product fraction solutions after storage ([8]; after storage at 8° C. for 16 days): 97.4%; average purity of product fraction solutions, initial ([8]; preparative HPLC fraction solutions, before storage): 98.8%
